Measured values from article PMC8147216, “Genotoxicity Evaluation of Propyl-Propane-Thiosulfinate (PTS) from Allium genus Essential Oils by a Combination of Micronucleus and Comet Assays in Rats” (Foods, 2021).
Where “and” joins values, the source holds several entries; their conditions need not be identical. Equal values may be shown once. Read-outs that look alike come from different tables or passages of the source.

Key:
bone marrow erythrocytes = assay: In vivo micronucleus (MN) assay in bone marrow (OECD 474); set-up: species or system Wistar rats
Procedure: (§1) After acclimation time, 28 male and 28 female rats were randomly divided into control or treatment groups: the negative control (C−) (five male and five female rats), the solvent control (C sol) (five male and five female rats) treated with water with 0.3% Tween 80, and the positive control (C+) (three male and three female rats) treated with 200 mg/kg b.w. of ethylmethanesulfonate (EMS). The three PTS-treated groups (five male and five female rats per group) were exposed to 55.0, 17.4, and 5.5 mg of PTS/kg b.w. The number of animals was selected according to OECD 474 [27] and OECD 489 [28], which state five animals per sex and per group, and which also allow the use of at least three animals of both sexes treated with a positive control.
Doses were dissolved in water with Tween 80 (final concentration 0.3%) in a final volume of 1.5 mL. Tween 80 was previously used in genotoxicity in vivo studies by Mellado-Garcia et al. with the aim of better conveying alliaceous compounds with an oily nature. All groups were dosed at 0, 24, and 45 h via gavage using a stomach tube (Vygon, Ecouen, France) and were sacrificed 3 h after the final dose administration for the combined comet assay and MN endpoints. The time points of PTS administrations, as well as the timing of sacrifice, were selected following the criteria of OECD guideline 489 and Bowen et al..
(§2) Samples of the liver and stomach were extracted, and a small part of each tissue was immediately handled, as described in Section 2.6, for the standard and enzyme-modified comet assay. Moreover, blood samples were extracted and preserved in Vacutainer® sodium Heparin Tubes (Becton, Dickinson, Rutherford, NJ, USA). Furthermore, samples from the bone marrow of both femurs of each animal were gathered for the MN assay and were rapidly used to prepare smears (Figure 1). For the histopathologic study, sections of the liver and stomach were excised, rinsed with cold saline solution, and preserved in 10% buffered formalin for light microscopy, according to Llana-Ruiz-Cabello et al..
The MN test was performed according to the OECD guideline 474 [27] and Diez-Quijada et al.. The bone marrow of the femurs of the rats were mixed with a drop of fetal bovine serum. Therefore, slides were immersed in methanol, dried, and stained with Giemsa (Figure 1).
The polychromatic erythrocytes (PCE) among total erythrocytes (polychromatic and normochromic erythrocytes (NCE)) ratio and PCE for every NCE ratio were calculated by counting 500 erythrocytes per rat. The number of micronuclei found in immature erythrocytes was calculated by counting a total of 5000 […] per rat, and it was expressed as %MN.

rats [1] = assay: Acute toxicity study to establish the maximum tolerated dose; assay type: in vivo
Procedure: The selection of PTS doses was calculated while taking into account a preceding acute toxicity study carried out by our research group, in which rats (8–10 weeks old) were administrated decreasing doses of PTS to establish the maximum tolerated dose (MTD). […] At that dose, no remarkable injury was detected in the treated rats, and no evidence of study-limiting toxicity was observed. Then, considering the ICH S2 Guidelines and the OECD protocols 474 [27] and 489 [28], the limit dose or MTD of 55.0 mg/kg b.w. was chosen as the highest dose, and two additional properly spaced dose levels (divided by √10) were also calculated. Consequently, the doses were set at 55.0, 17.4, or 5.5 mg of PTS/kg b.w.

liver and stomach [2] = assay: Histopathological analysis of liver and stomach; assay type: in vivo, rats
Excerpt: as §2
Liver and stomach samples were processed and observed under the microscope according to Diez-Quijada et al.. A semiquantitative evaluation of the severity of lesions was scored as follows: 0, no significant lesions (0%); 1, minimal (<10%); 2, mild (11–25%); 3, moderate (26–50%); 4, severe (51–75%); and 5: very severe (>75%). Samples were individually examined by two unbiased and experienced observers, a veterinary pathologist, and an investigator (V.M-H. and R.M.).

Caco-2 cells [3] = system: Caco-2 cells; set-up: method as in PMID 27939830; conditions: 24 and 48 h, highest concentration assayed; cited from earlier work
[4] = set-up: method as in PMID 27939830; conditions: 8.75–280 µM, presence or absence of S9; cited from earlier work
rats [5] = assay: Observation of clinical signs after treatment; assay type: in vivo, Wistar rats; conditions: all levels of doses of PTS (5.5, 17.4, 55.0 mg/kg b.w.), oral gavage
Excerpt: After treatment, each rat was observed twice daily for clinical signs such as changes in the eye, fur, or skin, changes in gait and posture, and secretions.

[6] = system: liver, stomach and blood cells; assay: In vivo enzyme-modified comet assay (Endo III, FPG); set-up: species or system Wistar rats; conditions: any tissue assayed (liver, stomach, blood); 5.5, 17.4, 55.0 mg/kg
Procedure: as §1
(§3) Doses were dissolved in water with Tween 80 (final concentration 0.3%) in a final volume of 1.5 mL. Tween 80 was previously used in genotoxicity in vivo studies by Mellado-Garcia et al. with the aim of better conveying alliaceous compounds with an oily nature. […]
(§4) At least 150 randomly selected nuclei per rat were analyzed with the image-analysis-software Comet Assay IV (Perceptive Instruments, UK). The %DNA in the tail, automatically acquired by the software, were used to define each of the comets analyzed. […] The medians of the scored comets were taken to describe each animal, and the means of each group of doses and controls are represented in Figure 2.

Caco-2 cells [7] = system: Caco-2 cells; set-up: method as in PMID 27939830; conditions: 24–48 h; cited from earlier work
[8] = system: liver, stomach and blood cells; assay: In vivo standard comet assay (OECD 489); set-up: species or system Wistar rats; conditions: any doses assayed, either sex
Procedure: as §1, §3, §4

L5178YTk+/− cells [9] = system: L5178YTk+/− cells; set-up: method as in PMID 27939830; conditions: cited from earlier work
male and female rats [10] = assay: Combined in vivo MN-comet assay (overall genotoxicity); conditions: male and female rats orally exposed, 55.0, 17.4 or 5.5 mg PTS/kg b.w.
Procedure: After acclimation time, 28 male and 28 female rats were randomly divided into control or treatment groups: the negative control (C−) (five male and five female rats), the solvent control (C sol) (five male and five female rats) treated with water with 0.3% Tween 80, and the positive control (C+) (three male and three female rats) treated with 200 mg/kg b.w. of ethylmethanesulfonate (EMS). The three PTS-treated groups (five male and five female rats per group) were exposed to 55.0, 17.4, and 5.5 mg of PTS/kg b.w. The number of animals was selected according to OECD 474 [27] and OECD 489 [28], which state five animals per sex and per group, and which also allow the use of at least three animals of both sexes treated with a positive control. Doses were dissolved in water with Tween 80 (final concentration 0.3%) in a final volume of 1.5 mL. Tween 80 was previously used in genotoxicity in vivo studies by Mellado-Garcia et al. with the aim of better conveying alliaceous compounds with an oily nature. All groups were dosed at 0, 24, and 45 h via gavage using a stomach tube (Vygon, Ecouen, France) and were sacrificed 3 h after the final dose administration for the combined comet assay and MN endpoints. The time points of PTS administrations, as well as the timing of sacrifice, were selected following the criteria of OECD guideline 489 and Bowen et al..

L5178YTk+/− cells [11] = system: L5178YTk+/− cells; set-up: method as in PMID 27939830; conditions: 0.9–15.65 µM, 24 and 48 h of treatment; cited from earlier work
male and female rats [12] = system: male and female rats; set-up: method as in PMID 27085469; conditions: cited from earlier work
liver and stomach [13] = system: liver and stomach; set-up: method as in PMID 27085469; conditions: in vivo genotoxicity study; except glycogen accumulation in liver and slight degeneration in stomach at 55.0 mg/kg; cited from earlier work
[14] = set-up: method as in PMID 26607106; conditions: four in vitro genotoxicity assays; cited from earlier work
[15] = female, Wistar, rat, in vivo, 200 mg/kg, 48 h
[16] = male, Wistar, rat, in vivo, 200 mg/kg, 48 h
[17] = females, 5.5 mg/kg, gavage at 0, 24, 45 h, mean ± SD
[18] = females, 17.4 mg/kg, gavage at 0, 24, 45 h, mean ± SD
[19] = females, 55.0 mg/kg, gavage at 0, 24, 45 h, mean ± SD
[20] = males, 5.5 mg/kg, gavage at 0, 24, 45 h, mean ± SD
[21] = males, 17.4 mg/kg, gavage at 0, 24, 45 h, mean ± SD
[22] = males, 55.0 mg/kg, gavage at 0, 24, 45 h, mean ± SD

In the case of CCOS(C)(=O)=O [EMS, ethylmethanesulfonate, reference compound], the “%MN” value (bone marrow erythrocytes; [15]) is reported as 2.53 ± 0.38 %, the PCE/NCE (bone marrow erythrocytes; [15]) is reported as 0.53 ± 0.29 and the PCE/Total (bone marrow erythrocytes; [15]) is reported as 0.33 ± 0.12. For the same compound, the “%MN” value (bone marrow erythrocytes; [16]) was 1.46 ± 0.72 %, the PCE/NCE (bone marrow erythrocytes; [16]) was 0.54 ± 0.12 and the PCE/Total (bone marrow erythrocytes; [16]) was 0.35 ± 0.05.

In the case of CCCS[S+]([O-])CCC (stereo not drawn) [PTS, Propyl-propanethiosulfinate], the mortality (rats [1]; initial dose 175.0 mg of PTS/kg b.w.) is reported as “death of one of the three animals”, the “maximum tolerated dose (MTD)” value (rats [1]; rat, in vivo) is reported as 55.0 mg of PTS/kg and the “severity of lesions in glandular stomach” value (liver and stomach [2]; 55.0 mg/kg, hypertrophy of mucus cells and flaking epithelium, p < 0.05 vs controls) is reported as “minimal to mild”. The “severity of lesions in liver” value (liver and stomach [2]; 55.0 mg/kg, inflammatory infiltrates and centrilobular degeneration of hepatocytes, p < 0.05 vs controls) was “minimal (1, minimal (<10%))”, the “severity of changes in liver” value (liver and stomach [2]; 17.4 and 5.5 mg/kg, similar to negative and solvent controls) was “minimal (1, minimal (<10%))” and the “severity of histopathological changes in stomach” value (liver and stomach [2]; 17.4 and 5.5 mg/kg, statistically significant) was “minimal (1, minimal (<10%))”. For the same compound, the “lesions in the nonglandular stomach” value (liver and stomach [2]; positive control (EMS 200 mg/kg) and PTS 55.0 mg/kg groups, with pyogranulomatous inflammatory infiltrate) was “vacuolation of the squamous epithelium in the mucosa”, the “% of MN in immature erythrocytes vs controls” value (bone marrow erythrocytes; any groups (5.5, 17.4, 55 mg/kg) of either sex) was “not significantly changed” and the “%MN” value (bone marrow erythrocytes; [17]) was 0.86 ± 0.09%. The PCE/NCE (bone marrow erythrocytes; [17]) was 1.03 ± 0.43, the PCE/Total (bone marrow erythrocytes; [17]) was 0.49 ± 0.10 and the “%MN” value (bone marrow erythrocytes; [18]) was 0.74 ± 0.06%. The PCE/NCE (bone marrow erythrocytes; [18]) was 0.68 ± 0.36, the PCE/Total (bone marrow erythrocytes; [18]) was 0.38 ± 0.13 and the “%MN” value (bone marrow erythrocytes; [19]) was 1.03 ± 0.21%. For the same compound, the PCE/NCE (bone marrow erythrocytes; [19]) was 0.54 ± 0.28, the PCE/Total (bone marrow erythrocytes; [19]) was 0.33 ± 0.11 and the “%MN” value (bone marrow erythrocytes; [20]) was 0.46 ± 0.21%. For the same compound, the PCE/NCE (bone marrow erythrocytes; [20]) was 1.31 ± 0.30, the PCE/Total (bone marrow erythrocytes; [20]) was 0.56 ± 0.05 and the “%MN” value (bone marrow erythrocytes; [21]) was 0.72 ± 0.30%. The PCE/NCE (bone marrow erythrocytes; [21]) was 1.14 ± 0.34, the PCE/Total (bone marrow erythrocytes; [21]) was 0.52 ± 0.08 and the “%MN” value (bone marrow erythrocytes; [22]) was 0.46 ± 0.15%. The PCE/NCE (bone marrow erythrocytes; [22]) was 0.89 ± 0.21, the PCE/Total (bone marrow erythrocytes; [22]) was 0.46 ± 0.06 and the “concentration with positive results in standard comet assay” value (Caco-2 cells [3]) was 280 µM and 280.0 µM. For the same compound, the “mutagenicity in the Ames test” value [4] was “not mutagenic”, the clinical signs (rats [5]) was “No clinical signs were observed” and the “frequency of Endo III or FPG-sensitive sites” value [6] was “no remarkable changes”. For the same compound, the “DNA damage after incubation with enzymes (Endo III or FPG)” value (Caco-2 cells [7]) was “no increase in DNA damage”, the “DNA strand breaks (%DNA in tail), standard comet assay” value [8] was “No observed DNA stand breaks” and the “concentration with positive results in MN test in vitro” value (L5178YTk+/− cells [9]; metabolites (+S9)) was ≥ 20 µM. The “concentration with positive results in MN test in vitro” value (L5178YTk+/− cells [9]; without S9, highest concentration assayed) was 17.25 µM, the in vivo genotoxicity (male and female rats [10]) was “not genotoxic” and the “mutagenicity in MLA assay” value (L5178YTk+/− cells [11]) was “not mutagenic”.

For CCCSS(=O)(=O)CCC [PTSO, propyl thiosulfinate oxide], the in vivo genotoxicity (male and female rats [12]) is given as “lack of PTSO genotoxicity”, the “histopathological damage in liver and stomach” value (liver and stomach [13]) is given as “no relevant damage” and the “in vitro genotoxicity responses” value [14] is given as “contradictory responses”.
